Values joined by “and” are separate entries in the source; they are usually repeats but may differ in a detail not shown here. Equal values may be shown once. Where a SMILES comes first, the peptide text is derived from it. Where no end group is shown, it is not given here. [ ]: non-standard residue; d: D form. Phe(4-NO2) = N[C@@H](Cc1ccc([N+](=O)[O-])cc1)C(=O)O; Oic = O=C(O)[C@@H]1C[C@@H]2CCCC[C@@H]2N1; Phe(4-Cl) = N[C@@H](Cc1ccc(Cl)cc1)C(=O)O; Phe(4-F) = N[C@@H](Cc1ccc(F)cc1)C(=O)O; Hyp = O=C(O)[C@@H]1C[C@@H](O)CN1; β3hF = N[C@H](CC(=O)O)Cc1ccccc1; β3hL = CC(C)C[C@H](N)CC(=O)O; β3hP = O=C(O)C[C@@H]1CCCN1
Legend:
[1] = molecular target: T1, Varroa mite proctolin receptor (VdProctR) (Varroa destructor, UniProt A0A7T1TE40); assay: Receptor activity assay (aequorin luminescence), CHO cells transiently expressing the receptor, first set of ligands; type: cell-based; conditions: for Fold change: EC50 relative to proctolin, first set (transient expression); for efficacy (maximal response) compared with proctolin: activities at 1 μM and 10 μM; for potency of double-replacement analog over the corresponding single Y2 replacement analog (factor): 2338 vs 2333, 2337 vs 2329; for EC50: cells with transient expression of the receptor
Experimental: (§1) Approximately thirty hours after transfection, the cells were collected and preincubated with coelenterazine h for the functional assay, as previously described[30],[31],[52]. The ligands in serial dilutions were loaded into 96-well opaque plates. Cells treated with coelenterazine h were injected into each well on an Orion microplate luminometer (Berthold) luminescent plate reader. The luminescence was measured for 20 s immediately after the cell injections. Data analyses were performed to determine the accumulated luminescence value for 20 s after extraction of blank-well luminescence. […] The three biological replications were regressed for the dose–response curves with 95% confidence intervals (Table 1). For the tests of the second set of ligands, we used the cell line that stably expressed VdProctR, which were selected by Zeocin for 5 passages.

[2] = molecular target: T1, Varroa mite proctolin receptor (VdProctR); assay: Receptor activity assay, CHO cell line stably expressing the receptor, second set of ligands; type: cell-based; conditions: for Fold change: EC50 relative to proctolin, second set (stable expression)
Experimental: as §1

worker honey bee = assay: Acute toxicity on worker honey bee by injection, 24 h; conditions: 50 nL of 200 µM (10 pmol), 24 h observation, n = 4
Experimental: For honey bee (Apis mellifera) assays, honey bee workers from healthy colonies were collected from Honeybee Valley of Ghent University, Belgium, and maintained in cages on sugar dough and water, under standardized conditions of 28–30 °C, 60–65% air humidity and continuous darkness. The colony were maintained with a periodic sanitary control that the honeybee hives are free of pathogens, diseases and viruses. There was no Varroa mite infection in the honeybee hives at the moment of collecting the workers for the assays. […] This was realized by injecting a volume of 50 nL of a concentration of the compound of 200 µM. Potential effects on survival were scored at 24 h after injection. […] This test was done with the following compounds were tested: 2439, 2334, 2336, Ac-2442 and controls. Subsequently, working solutions were freshly prepared prior to the bioassays by diluting the stock with distilled water to the required concentration.

[3] = test system: proctolin myotropic assays in cockroach, locust and beetle species; conditions: cited from earlier work

T1 sequence (A0A7T1TE40 entry or part of it): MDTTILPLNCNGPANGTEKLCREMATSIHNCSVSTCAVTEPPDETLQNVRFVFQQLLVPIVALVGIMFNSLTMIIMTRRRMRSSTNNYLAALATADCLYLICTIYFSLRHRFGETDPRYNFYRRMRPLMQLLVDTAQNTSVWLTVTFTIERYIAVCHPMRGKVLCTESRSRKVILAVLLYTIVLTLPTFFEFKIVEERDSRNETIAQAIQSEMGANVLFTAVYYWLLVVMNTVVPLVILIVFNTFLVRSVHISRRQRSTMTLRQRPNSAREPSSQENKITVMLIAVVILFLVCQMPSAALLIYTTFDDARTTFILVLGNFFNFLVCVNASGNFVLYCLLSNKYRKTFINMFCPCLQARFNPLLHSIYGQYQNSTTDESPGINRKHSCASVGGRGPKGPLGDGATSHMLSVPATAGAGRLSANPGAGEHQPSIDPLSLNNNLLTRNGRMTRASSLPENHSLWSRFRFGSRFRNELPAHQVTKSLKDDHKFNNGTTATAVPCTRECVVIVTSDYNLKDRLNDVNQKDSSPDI

CC(C)C[C@H](NC(=O)C[C@H](Cc1ccccc1)NC(=O)[C@@H](N)CCCNC(=N)N)C(=O)N1CCC[C@H]1C(=O)N[C@H](C(=O)O)[C@@H](C)O [Analog 2333, R[β3F]LPT] (H-R[β3hF]LPT-OH)
Fold change [1]: 572.0

RYLPTG [Analog G6, RYLPTG]
Fold change [1]: 4088.2 | efficacy (maximal response) compared with proctolin [1]: higher than that of proctolin

RYLPGT [Analog G5, RYLPGT]
Fold change [1]: 3095.5

CC(C)C[C@H](NC(=O)[C@@H](Cc1ccc(O)cc1)NC(=O)[C@@H](N)CCCNC(=N)N)C(=O)N1C[C@H](O)C[C@H]1C(=O)N[C@H](C(=O)O)[C@@H](C)O [Analog 2337, R[dY]L[HyP]T] (H-R[dY]L[Hyp]T-OH; N-terminus and C-terminus assumed)
efficacy (maximal response) [1]: full efficacy | potency of double-replacement analog over the corresponding single Y2 replacement analog (factor) [1]: 4 | Fold change [1]: 143.5

RYGLPT [Analog G3, RYGLPT]
Fold change [1]: 91508.8

RYL[HyP]T [Analog 2334] (H-RYL[Hyp]T-OH; N-terminus and C-terminus assumed; SMILES CC(C)C[C@H](NC(=O)[C@H](Cc1ccc(O)cc1)NC(=O)[C@@H](N)CCCNC(=N)N)C(=O)N1C[C@H](O)C[C@H]1C(=O)N[C@H](C(=O)O)[C@@H](C)O)
efficacy (maximal response) compared with proctolin [1]: higher than that of proctolin

CC(C)C[C@@H](NC(=O)[C@H](Cc1ccc(O)cc1)NC(=O)[C@@H](N)CCCNC(=N)N)C(=O)N1CCC[C@H]1C(=O)N[C@H](C(=O)O)[C@@H](C)O [Analog 2328, RY[dL]PT] (H-RY[dL]PT-OH; N-terminus and C-terminus assumed)
Fold change [1]: 558.8

CC(=O)N[C@@H](CCCNC(=N)N)C(=O)N[C@@H](Cc1ccc(F)cc1)C(=O)N[C@@H](CC(C)C)C(=O)N1C[C@H](O)C[C@H]1C(=O)N[C@H](C(=O)O)[C@@H](C)O [Ac-2441, Ac-R[Phe(4-F)]L[HyP]T] (Ac-R[Phe(4-F)]L[Hyp]T-OH; N-terminus and C-terminus assumed)
Fold change [2]: 61.5

CC(C)C[C@H](NC(=O)[C@H](Cc1ccc(O)cc1)NC(=O)[C@@H](N)CCCNC(=N)N)C(=O)N1CCC[C@@H]1C(=O)N[C@H](C(=O)O)[C@@H](C)O [Analog 2327, RYL[dP]T] (H-RYL[dP]T-OH; N-terminus and C-terminus assumed)
Fold change [1]: 1881.1

CC(C)C[C@H](NC(=O)[C@@H](Cc1ccc(O)cc1)NC(=O)[C@@H](N)CCCNC(=N)N)C(=O)N1CCC[C@H]1C(=O)N[C@H](C(=O)O)[C@@H](C)O [Analog 2329, R[dY]LPT] (H-R[dY]LPT-OH; N-terminus and C-terminus assumed)
Fold change [1]: 824.5

CC(C)C[C@H](NC(=O)[C@H](Cc1ccc(F)cc1)NC(=O)[C@@H](N)CCCNC(=N)N)C(=O)N1C[C@H](O)C[C@H]1C(=O)N[C@H](C(=O)O)[C@@H](C)O [Analog 2441, R[Phe(4-F)]L[HyP]T] (H-R[Phe(4-F)]L[Hyp]T-OH; N-terminus and C-terminus assumed)
Fold change [2]: 0.7 | activity compared with proctolin ([2]; second set, stable expression): higher activity than proctolin

CC(C)C[C@H](NC(=O)[C@H](Cc1ccc(Cl)cc1)NC(=O)[C@@H](N)CCCNC(=N)N)C(=O)N1CCC[C@H]1C(=O)N[C@H](C(=O)O)[C@@H](C)O [Analog 2440, R[Phe(4-Cl)]LPT] (H-R[Phe(4-Cl)]LPT-OH)
EC50 [2]: 0.00573 µM | Fold change [2]: 0.2

GRYLPT [Analog G1, GRYLPT]
Fold change [1]: 199.7

CC(=O)N[C@@H](CCCNC(=N)N)C(=O)N[C@@H](Cc1ccc([N+](=O)[O-])cc1)C(=O)N[C@@H](CC(C)C)C(=O)N1C[C@H](O)C[C@H]1C(=O)N[C@H](C(=O)O)[C@@H](C)O [Ac-2442, Ac-R[Phe(4-NO2)]L[HyP]T] (Ac-R[Phe(4-NO2)]L[Hyp]T-OH)
negative effects after injection into thorax (worker honey bee): did not show any negative effects

CC(C)C[C@H](NC(=O)[C@@H](Cc1ccc(O)cc1)NC(=O)[C@@H](N)CCCNC(=N)N)C(=O)N1[C@H](C(=O)N[C@H](C(=O)O)[C@@H](C)O)C[C@@H]2CCCC[C@@H]21 [Analog 2340, R[dY]L[Oic]T] (H-R[dY]L[Oic]T-OH)
Fold change [1]: 529.7

CC(C)C[C@H](NC(=O)C[C@H](Cc1ccccc1)NC(=O)[C@@H](N)CCCNC(=N)N)C(=O)N1C[C@H](O)C[C@H]1C(=O)N[C@H](C(=O)O)[C@@H](C)O [Analog 2338, R[β3F]L[HyP]T] (H-R[β3hF]L[Hyp]T-OH)
efficacy (maximal response) [1]: full efficacy | potency of double-replacement analog over the corresponding single Y2 replacement analog (factor) [1]: 8 | EC50 ([1]; EC50, first set of peptidomimetics): 0.033 µM and 0.0332 µM | Fold change [1]: 136.1

RYL[β3P]T [Analog 2331] (H-RYL[β3hP]T-OH; N-terminus and C-terminus assumed; SMILES CC(C)C[C@H](NC(=O)[C@H](Cc1ccc(O)cc1)NC(=O)[C@@H](N)CCCNC(=N)N)C(=O)N1CCC[C@H]1CC(=O)N[C@H](C(=O)O)[C@@H](C)O)
efficacy (maximal response) compared with proctolin [1]: higher than that of proctolin

CC(C)C[C@H](NC(=O)[C@H](Cc1ccc(O)cc1)NC(=O)[C@@H](N)CCCNC(=N)N)C(=O)N1CCC[C@H]1C(=O)N[C@@H](C(=O)O)[C@H](C)O [Analog 2326, RYLP[dT]] (H-RYLP[dT]-OH; N-terminus and C-terminus assumed)
Fold change [1]: 7654.8

RGYLPT [Analog G2, RGYLPT]
Fold change [1]: 71648.2

CC(C)C[C@H](NC(=O)[C@H](Cc1ccc(O)cc1)NC(=O)[C@H](N)CCCNC(=N)N)C(=O)N1CCC[C@H]1C(=O)N[C@H](C(=O)O)[C@@H](C)O [Analog 2330, [dR]YLPT] (H-[dR]YLPT-OH; N-terminus and C-terminus assumed)
activity in earlier in vivo myotropic bioassays [3]: no activity | efficacy (maximal response) compared with proctolin [1]: higher than that of proctolin | EC50 ([1]; first set of peptidomimetics, listed as R1 replacement by dR, read-out: EC50): 0.00562 µM

RYLGPT [Analog G4, RYLGPT]
Fold change [1]: 5444.9

CC(=O)N[C@@H](CCCNC(=N)N)C(=O)N[C@@H](Cc1ccc(Cl)cc1)C(=O)N[C@@H](CC(C)C)C(=O)N1C[C@H](O)C[C@H]1C(=O)N[C@H](C(=O)O)[C@@H](C)O [Ac-2443, Ac-R[Phe(4-Cl)]L[HyP]T] (Ac-R[Phe(4-Cl)]L[Hyp]T-OH)
Fold change [2]: 37.5

CC(C)C[C@@H](CC(=O)N1CCC[C@H]1C(=O)N[C@H](C(=O)O)[C@@H](C)O)NC(=O)[C@H](Cc1ccc(O)cc1)NC(=O)[C@@H](N)CCCNC(=N)N [Analog 2332, RY[β3L]PT] (H-RY[β3hL]PT-OH)
Fold change [1]: 661.7

CC(C)C[C@H](NC(=O)[C@H](Cc1ccc(F)cc1)NC(=O)[C@@H](N)CCCNC(=N)N)C(=O)N1CCC[C@H]1C(=O)N[C@H](C(=O)O)[C@@H](C)O [Analog 2438, R[Phe(4-F)]LPT] (H-R[Phe(4-F)]LPT-OH)
EC50 [2]: 0.0167 µM | Fold change [2]: 0.7

CC(C)C[C@H](NC(=O)[C@H](Cc1ccc([N+](=O)[O-])cc1)NC(=O)[C@@H](N)CCCNC(=N)N)C(=O)N1CCC[C@H]1C(=O)N[C@H](C(=O)O)[C@@H](C)O [Analog 2439, R[Phe(4-NO2)]LPT] (H-R[Phe(4-NO2)]LPT-OH)
negative effects after injection into thorax (worker honey bee): did not show any negative effects
